From US8410064B2, “Classical cannabinoid metabolites and methods of use thereof” (priority 2009, dated 2013)

What was measured:
[1] = target: T1, recombinant human UGT1A10 (Homo sapiens, UniProt Q9HAW8); assay: Glucuronidation by recombinant UGT1A10 (activity screen and steady-state kinetics); settings: for glucuronidation activity (initial screen): 750 μM substrate, 90 min
T1 sequence (Q9HAW8 26-530): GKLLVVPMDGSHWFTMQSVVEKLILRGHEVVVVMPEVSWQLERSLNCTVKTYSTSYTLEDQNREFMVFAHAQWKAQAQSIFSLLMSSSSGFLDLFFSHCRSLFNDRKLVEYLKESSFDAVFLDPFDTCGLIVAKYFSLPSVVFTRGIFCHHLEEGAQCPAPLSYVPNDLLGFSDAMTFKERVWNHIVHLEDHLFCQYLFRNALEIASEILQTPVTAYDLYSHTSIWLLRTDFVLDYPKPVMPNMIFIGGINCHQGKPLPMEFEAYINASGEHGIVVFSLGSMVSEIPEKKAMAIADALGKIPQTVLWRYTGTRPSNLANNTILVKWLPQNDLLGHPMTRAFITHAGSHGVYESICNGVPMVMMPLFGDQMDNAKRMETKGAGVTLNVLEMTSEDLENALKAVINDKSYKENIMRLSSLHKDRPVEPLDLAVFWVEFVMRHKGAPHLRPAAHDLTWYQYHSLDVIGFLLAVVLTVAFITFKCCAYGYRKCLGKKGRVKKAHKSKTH

[2] = target: T2, recombinant human UGT1A1 (Homo sapiens, UniProt P22309); assay: Glucuronidation by recombinant UGT1A1 (activity screen and steady-state kinetics); settings: UDP-GlcUA 4 mM
T2 sequence (P22309 26-533): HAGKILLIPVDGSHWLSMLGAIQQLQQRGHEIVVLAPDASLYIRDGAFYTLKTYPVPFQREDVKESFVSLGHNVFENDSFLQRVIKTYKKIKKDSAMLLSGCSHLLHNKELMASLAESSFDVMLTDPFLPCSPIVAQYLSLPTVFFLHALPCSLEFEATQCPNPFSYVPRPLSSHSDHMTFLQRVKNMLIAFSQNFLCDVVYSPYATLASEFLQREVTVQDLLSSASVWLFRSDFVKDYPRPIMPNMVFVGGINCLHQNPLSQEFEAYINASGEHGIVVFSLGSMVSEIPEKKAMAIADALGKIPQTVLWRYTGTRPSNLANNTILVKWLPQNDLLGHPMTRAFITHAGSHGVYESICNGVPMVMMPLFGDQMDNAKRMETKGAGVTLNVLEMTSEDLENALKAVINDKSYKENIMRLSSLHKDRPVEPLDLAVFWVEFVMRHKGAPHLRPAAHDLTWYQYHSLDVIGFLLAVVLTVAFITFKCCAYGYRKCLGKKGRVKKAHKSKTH

[3] = tested on: human liver microsomes; assay: Glucuronidation by human liver microsomes (activity screen); settings: human liver microsomes (HLM); 750 μM substrate, UDP-GlcUA 4 mM, 90 min
[4] = target: T3, recombinant human UGT1A3 (Homo sapiens, UniProt P35503); assay: Glucuronidation by recombinant UGT1A3 (activity screen and steady-state kinetics); settings: UDP-GlcUA 4 mM
T3 sequence (P35503 29-534): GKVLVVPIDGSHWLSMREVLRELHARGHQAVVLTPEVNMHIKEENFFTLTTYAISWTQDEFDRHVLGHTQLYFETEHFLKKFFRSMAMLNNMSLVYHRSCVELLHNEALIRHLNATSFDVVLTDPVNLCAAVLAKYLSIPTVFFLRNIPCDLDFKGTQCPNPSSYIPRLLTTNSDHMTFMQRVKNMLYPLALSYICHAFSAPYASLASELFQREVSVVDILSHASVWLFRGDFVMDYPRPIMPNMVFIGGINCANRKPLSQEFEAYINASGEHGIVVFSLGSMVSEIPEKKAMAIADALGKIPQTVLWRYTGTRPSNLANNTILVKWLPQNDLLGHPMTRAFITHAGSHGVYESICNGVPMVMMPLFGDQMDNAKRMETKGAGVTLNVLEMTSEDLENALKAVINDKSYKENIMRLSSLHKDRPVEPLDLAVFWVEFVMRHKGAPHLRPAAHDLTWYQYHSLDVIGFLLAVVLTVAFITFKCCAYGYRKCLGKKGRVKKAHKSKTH

[5] = target: T4, recombinant human UGT1A9 (Homo sapiens, UniProt O60656); assay: Glucuronidation by recombinant UGT1A9 (activity screen and steady-state kinetics); settings: UDP-GlcUA 4 mM
T4 sequence (O60656 26-530): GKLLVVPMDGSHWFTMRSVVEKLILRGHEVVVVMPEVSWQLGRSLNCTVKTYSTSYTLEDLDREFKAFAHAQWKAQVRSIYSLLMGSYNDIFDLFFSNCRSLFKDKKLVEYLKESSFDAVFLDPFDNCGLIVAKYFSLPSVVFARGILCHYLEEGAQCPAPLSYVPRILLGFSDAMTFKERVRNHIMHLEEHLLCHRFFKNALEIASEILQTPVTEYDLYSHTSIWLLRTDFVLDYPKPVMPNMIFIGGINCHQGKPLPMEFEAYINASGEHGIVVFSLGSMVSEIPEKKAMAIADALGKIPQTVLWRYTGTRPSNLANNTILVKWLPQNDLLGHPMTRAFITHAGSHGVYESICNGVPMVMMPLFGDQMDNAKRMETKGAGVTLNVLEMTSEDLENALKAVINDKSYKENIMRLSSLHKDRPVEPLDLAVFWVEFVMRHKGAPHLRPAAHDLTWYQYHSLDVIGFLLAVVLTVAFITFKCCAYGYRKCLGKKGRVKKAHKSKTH

[6] = substrate: CCCCCc1cc(O)c2c(c1)OC(C)(C)c1ccc(C)cc1-2; assay: cells, lysate or membranes named; settings: UDP-GlcUA 4 mM, 37° C., 30 min, TLC, pH 7.4
[7] = 5 μg membrane protein, 37° C., 30 min, TLC
[8] = 5 μg membrane protein, 37° C., 30 min, TLC, normalized
[9] = other: UGT1A9, 5 μg membrane protein
[10] = other: UGT1A8, 5 μg membrane protein
[11] = other: UGT1A7, 5 μg membrane protein
[12] = other: UGT1A10, 5 μg membrane protein

Molecule: CCCCCc1cc(O)c2c(c1)OC(C)(C)c1ccc(C)cc1-2 [CBN, cannabinol]
- glucuronidation activity (initial screen) ([1]; UDP-GlcUA 4 mM): glucuronidated at high levels
- effectiveness of conjugation relative to 11-OH-THC ([1]; CBN versus 11-OH-THC): 3 fold

Molecule: CCCCCc1cc(O)c2c(c1)OC(C)(C)[C@@H]1CCC(C(=O)O)=C[C@@H]21 [COOH-THC, (−)-11-nor-9-carboxy-Δ^9-THC]
- Km [2, 7]: 170 ± 37 µM
- Vmax [2, 8]: 0.22 ± 0.02 nmol/mg protein/min
- glucuronidation activity (initial screen) ([2]; 750 μM substrate, 90 min): significant amount of activity
- glucuronidation activity (initial screen) [3]: significant amount of activity
- Km [4, 7]: 68 ± 17 µM
- Vmax [4, 8]: 0.68 ± 0.06 nmol/mg protein/min
- glucuronidation activity (initial screen) ([4]; 750 μM substrate, 90 min): highest activity

Molecule: (±)-11-hydroxy-Δ^9-THC [11-OH-THC]
- Km [5, 7]: 73 ± 1.9 µM
- Vmax [5, 8]: 0.14 ± 0.01 nmol/mg protein/min
- glucuronidation activity (initial screen) ([5]; 750 μM substrate, 90 min): specifically glucuronidated
- Km ([1]; 5 μg membrane protein, UDP-GlcUA 4 mM, 37° C., 30 min, TLC): 72 ± 19 µM
- Vmax ([1]; 5 μg membrane protein, UDP-GlcUA 4 mM, 37° C., 30 min, TLC, normalized): 0.33 ± 0.03 nmol/mg protein/min
- glucuronidation activity (initial screen) ([1]; UDP-GlcUA 4 mM): specifically glucuronidated

B1: recombinant human UGT1A9 (Homo sapiens) (protein)
chain: GKLLVVPMDGSHWFTMRSVVEKLILRGHEVVVVMPEVSWQLGRSLNCTVKTYSTSYTLEDLDREFKAFAHAQWKAQVRSIYSLLMGSYNDIFDLFFSNCRSLFKDKKLVEYLKESSFDAVFLDPFDNCGLIVAKYFSLPSVVFARGILCHYLEEGAQCPAPLSYVPRILLGFSDAMTFKERVRNHIMHLEEHLLCHRFFKNALEIASEILQTPVTEYDLYSHTSIWLLRTDFVLDYPKPVMPNMIFIGGINCHQGKPLPMEFEAYINASGEHGIVVFSLGSMVSEIPEKKAMAIADALGKIPQTVLWRYTGTRPSNLANNTILVKWLPQNDLLGHPMTRAFITHAGSHGVYESICNGVPMVMMPLFGDQMDNAKRMETKGAGVTLNVLEMTSEDLENALKAVINDKSYKENIMRLSSLHKDRPVEPLDLAVFWVEFVMRHKGAPHLRPAAHDLTWYQYHSLDVIGFLLAVVLTVAFITFKCCAYGYRKCLGKKGRVKKAHKSKTH
- Km [6, 9]: 3.4 ± 1.3 µM
- Vmax [6, 9]: 0.0001 µmol/min/mg

B2: recombinant human UGT1A8 (Homo sapiens) (protein)
chain: GKLLVVPMDGSHWFTMQSVVEKLILRGHEVVVVMPEVSWQLGKSLNCTVKTYSTSYTLEDLDREFMDFADAQWKAQVRSLFSLFLSSSNGFFNLFFSHCRSLFNDRKLVEYLKESSFDAVFLDPFDACGLIVAKYFSLPSVVFARGIACHYLEEGAQCPAPLSYVPRILLGFSDAMTFKERVRNHIMHLEEHLFCQYFSKNALEIASEILQTPVTAYDLYSHTSIWLLRTDFVLDYPKPVMPNMIFIGGINCHQGKPLPMEFEAYINASGEHGIVVFSLGSMVSEIPEKKAMAIADALGKIPQTVLWRYTGTRPSNLANNTILVKWLPQNDLLGHPMTRAFITHAGSHGVYESICNGVPMVMMPLFGDQMDNAKRMETKGAGVTLNVLEMTSEDLENALKAVINDKSYKENIMRLSSLHKDRPVEPLDLAVFWVEFVMRHKGAPHLRPAAHDLTWYQYHSLDVIGFLLAVVLTVAFITFKCCAYGYRKCLGKKGRVKKAHKSKTH
- Km [6, 10]: 44 ± 8.1 µM
- Vmax [6, 10]: 0.00049 µmol/min/mg

B3: recombinant human UGT1A7 (Homo sapiens) (protein)
chain: GKLLVVPMDGSHWFTMQSVVEKLILRGHEVVVVMPEVSWQLGRSLNCTVKTYSTSYTLEDQDREFMVFADARWTAPLRSAFSLLTSSSNGIFDLFFSNCRSLFNDRKLVEYLKESCFDAVFLDPFDACGLIVAKYFSLPSVVFARGIFCHYLEEGAQCPAPLSYVPRLLLGFSDAMTFKERVWNHIMHLEEHLFCPYFFKNVLEIASEILQTPVTAYDLYSHTSIWLLRTDFVLEYPKPVMPNMIFIGGINCHQGKPVPMEFEAYINASGEHGIVVFSLGSMVSEIPEKKAMAIADALGKIPQTVLWRYTGTRPSNLANNTILVKWLPQNDLLGHPMTRAFITHAGSHGVYESICNGVPMVMMPLFGDQMDNAKRMETKGAGVTLNVLEMTSEDLENALKAVINDKSYKENIMRLSSLHKDRPVEPLDLAVFWVEFVMRHKGAPHLRPAAHDLTWYQYHSLDVIGFLLAVVLTVAFITFKCCAYGYRKCLGKKGRVKKAHKSKTH
- Km [6, 11]: 19 ± 3.9 µM
- Vmax [6, 11]: 0.00024 µmol/min/mg

B4: recombinant human UGT1A10 (Homo sapiens) (protein)
chain: GKLLVVPMDGSHWFTMQSVVEKLILRGHEVVVVMPEVSWQLERSLNCTVKTYSTSYTLEDQNREFMVFAHAQWKAQAQSIFSLLMSSSSGFLDLFFSHCRSLFNDRKLVEYLKESSFDAVFLDPFDTCGLIVAKYFSLPSVVFTRGIFCHHLEEGAQCPAPLSYVPNDLLGFSDAMTFKERVWNHIVHLEDHLFCQYLFRNALEIASEILQTPVTAYDLYSHTSIWLLRTDFVLDYPKPVMPNMIFIGGINCHQGKPLPMEFEAYINASGEHGIVVFSLGSMVSEIPEKKAMAIADALGKIPQTVLWRYTGTRPSNLANNTILVKWLPQNDLLGHPMTRAFITHAGSHGVYESICNGVPMVMMPLFGDQMDNAKRMETKGAGVTLNVLEMTSEDLENALKAVINDKSYKENIMRLSSLHKDRPVEPLDLAVFWVEFVMRHKGAPHLRPAAHDLTWYQYHSLDVIGFLLAVVLTVAFITFKCCAYGYRKCLGKKGRVKKAHKSKTH
- Km [6, 12]: 59 ± 10 µM
- Vmax [6, 12]: 0.00091 µmol/min/mg
